Source: US20120208848A1 (NEUROSYSTEC CORPORATION, priority 2005, published 2012)

What was measured:
Format in all cases: physicochemical
[1] = Effect of pH and polysorbate 80 on gacyclidine stability in Ringer's solution at 55° C.
Experimental: These samples were then incubated at 55° C. for 24 hours. […] The pH of each sample was determined at 55° C. by use of a pH meter standardized at 55° C. The pH meter, electrode and standards were the same as described in Example 3.

[2] = Elution of gacyclidine from a suspension of the free base form
Experimental: The pH of these solutions was monitored by use of a pH meter, as described in Example 3. […] The average temperature of these solutions was 23° C. and varied between 21 and 25° C.

[3] = Effect of pH on gacyclidine decomposition and solubility in Ringer's solution at 55° C.; conditions: 100 μM in Ringer's solution, 24 hours, pH 7.3 to 8.1, no excipient
Experimental: These samples were then incubated at 55° C. for 24 hours.
The pH of each sample was determined at 55° C. by use of a pH meter standardized at 55° C. The pH meter, electrode and standards were the same as described in Example 3.

[4] = Solubility of gacyclidine as a function of pH and excipients, room temperature, glass vials
Experimental: Thereafter the mixture remained standing at room temperature for two days.
The pH of the mixture was determined by use of a SympHony glass calomel micro combination pH electrode obtained from VWR (Cat. No. 14002-776). Oakton standard reference solutions at pH 7.00±0.01 (25° C.; 7.02 at 20° C.), 4.01±0.01 (25° C.; 4.00 at 20° C.) and 10.00 (25° C.; 10.05 at 20° C.) were obtained from Cole-Parmer. These standard pH solutions were used to calibrate a Cole-Parmer Model 5996-60 analog pH meter equipped with a SympHony electrode to within 0.01 pH units of reference solutions.

[5] = Loss of 25 μM gacyclidine in polypropylene vials with and without SOLUTOL HS 15; conditions: 0.15 M NaCl, 37° C., one or three days
Experimental: Some of these solutions also contained 0.1% SOLUTOL® HS 15.
Although the results after three days of incubation parallel those obtained after one day of incubation at 37° C., the increased loss observed at low pH in the samples incubated for three days presumably reflected losses due to decomposition.

[6] = Maintenance of gacyclidine in solution (HPLC solution concentration over time); conditions: 20° C.
Experimental: Gacyclidine was detected using a Surveyor HPLC system (Thermo Electron). A Grace Vydac C8 MASS SPEC column (cat #208MS5210; S/N NE981208-3-7) purchased from The Nest Group (Southboro, Mass.) was employed for these analyses. The chromatographic column was maintained at 30° C. Samples were prepared in 12 mm×32 mm autosampler vials (Thermo Electron, A4954-010) and maintained at 20° C. in the autosampler.
For maximum accuracy, a ‘full-loop’ injection protocol was employed, in which 80.7 μL was withdrawn from the vial to over-fill a 20 μL injection loop. The entire sample contained in the 20 μL injection loop was applied to the C8 chromatography column. The sample was then eluted at a flow rate of 300 μL/min with a step gradient composed of water containing 0.1% (volume/volume) trifluoroacetic acid (buffer A) and acetonitrile containing 0.1% (volume/volume) trifluoroacetic acid (buffer B). The step gradient consisted of elution with 100% buffer A from 0 to 5 minutes; 80% buffer A-20% buffer B from 5 to 15 minutes; 100% buffer B from 15 to 20 minutes and 100% buffer A from 20 to 25 minutes.
The column eluant was monitored at 234 nm by use of a Thermo Electron PDA UV detector. […] The presence of gacyclidine was confirmed by connecting the column eluant, after passage through the UV detector, to an AQA mass spectrometer (Thermo Electron).
An aliquot (10 μL) of these solutions was then added to 10.0 mL of either Ringer's Lactate (pH 6.6), Ringer's Lactate containing 100 μM NaOH (pH 7.5), or 0.1 N HCl (pH 1.0) to give a final drug concentration of 100 μM. Aliquots of these drug solutions were transferred to autosampler vials and maintained at 20° C. until being analyzed by HPLC.

[7] = Ringer's Lactate 133 μM NaHCO3, 1.10 days
[8] = Ringer's Lactate 133 μM NaHCO3, 1.54 days
[9] = Ringer's Lactate 133 μM NaHCO3, 5.79 days
[10] = Ringer's Lactate without pH adjustment, 1.10 days
[11] = Ringer's Lactate without pH adjustment, 1.54 days
[12] = Ringer's Lactate without pH adjustment, 5.79 days

**Q.** What does the source list for `CC1CCCCC1(c1cccs1)N1CCCCC1.Cl` (stereo not drawn) [gacyclidine, 1-(2-methyl-1-thiophen-2-yl-cyclohexyl)-piperidine hydrochloride]?
**A.** piperidine formed from 100 μM gacyclidine ([1]; 0.3% polysorbate 80, Ringer's solution, 55° C., 24 hours, pH 6.7): 4.5 µM; piperidine formed from 100 μM gacyclidine ([1]; 0.3% polysorbate 80, Ringer's solution, 55° C., 24 hours, pH 8.2): 0.92 µM; loss of gacyclidine due to precipitation ([1]; 0.3% polysorbate 80, Ringer's solution, 55° C., 24 hours, various pH): no loss of gacyclidine due to precipitation; decomposition rate as % of the acid form rate at 55° C. ([1]; 0.3% polysorbate 80, pH 6.7, 55° C.): 6.4%; decomposition rate as % of the acid form rate at 55° C. ([1]; 0.3% polysorbate 80, pH 8.2, 55° C.): 1.3%; gacyclidine ([2]; 2.8 mg free base in 20.0 mL Ringer's Lactate 133 μM NaHCO3, 23° C., 0.625 days): 20.7 µM; gacyclidine ([2]; 2.8 mg free base in 20.0 mL Ringer's Lactate without pH adjustment, 23° C., 0.625 days): 56.4 µM; pH of free base suspension ([2]; Ringer's Lactate 133 μM NaHCO3, 0.625 days): 7.54; gacyclidine [2, 7]: 37.1 µM; pH of free base suspension [2, 7]: 7.58; gacyclidine [2, 8]: 46.2 ± 0.3 µM; pH of free base suspension [2, 8]: 7.51; gacyclidine [2, 9]: 76.3 ± 0.3 µM; pH of free base suspension [2, 9]: 7.62; gacyclidine ([2]; Ringer's Lactate 133 μM NaHCO3, 9.85 days): 77.2 ± 0.5 µM; gacyclidine ([2]; Ringer's Lactate 133 μM NaHCO3, 12.9 days): 72.9 ± 1.1 µM; gacyclidine ([2]; Ringer's Lactate 133 μM NaHCO3, 14.0 days): 75.7 ± 2.0 µM; time to reach equilibrium concentration ([2]; Ringer's Lactate containing 0.13 mM sodium bicarbonate): ≤ 10 days; equilibrium concentration as % of the total amount of gacyclidine base added ([2]; Ringer's Lactate with added sodium bicarbonate): ~14%; equilibrium concentration as % of the total amount of gacyclidine base added ([2]; Ringer's Lactate without added sodium bicarbonate): about 30%; pH of free base suspension ([2]; Ringer's Lactate without pH adjustment, 0.625 days): 7.66; gacyclidine [2, 10]: 79.8 µM; pH of free base suspension [2, 10]: 7.44; gacyclidine [2, 11]: 88.3 ± 2.4 µM; pH of free base suspension [2, 11]: 7.46; gacyclidine [2, 12]: 124.4 ± 14.5 µM; pH of free base suspension [2, 12]: 7.38; gacyclidine ([2]; Ringer's Lactate without pH adjustment, 9.85 days): 152.4 ± 0.7 µM; gacyclidine ([2]; Ringer's Lactate without pH adjustment, 12.9 days): 162.2 ± 1.4 µM; gacyclidine ([2]; Ringer's Lactate without pH adjustment, 14.0 days): 157.9 ± 3.6 µM; time to reach equilibrium concentration ([2]; Ringer's Lactate without sodium bicarbonate): ≤ 10 days; maximum concentration achieved at equilibrium ([2]; solid gacyclidine base, starting pH near physiologic pH): about 75 μM; loss of gacyclidine from solution [3]: loss of gacyclidine both by decomposition and by precipitation from solution; gacyclidine remaining in solution at high pH ([4]; 0.1% CAPTISOL, 1 mM added, room temperature, two days, glass): about 14 μM; gacyclidine remaining in solution at high pH ([4]; 0.1% SOLUTOL HS15, 1 mM added, room temperature, two days, glass): ~96 μM; gacyclidine remaining in solution at high pH ([4]; 0.1% TWEEN 80, 1 mM added, room temperature, two days, glass): ~42 μM; gacyclidine base maintained in solution per gram of carrier molecule ([4]; CAPTISOL, room temperature): 0.004 grams per gram of carrier mole; gacyclidine base maintained in solution per gram of carrier molecule ([4]; SOLUTOL HS 15, room temperature): 0.02 grams per gram of carrier mole; gacyclidine base maintained in solution per gram of carrier molecule ([4]; TWEEN 80, room temperature): 0.01 grams per gram of carrier mole; solubility kinetic at 2 days ([4]; buffered aqueous solution, aqueous buffer, kinetic from dmso stock, pH 9.7, 1 mM added, room temperature, two days, glass, presence or absence of 0.1% SOLUPHOR P): 2.6 µM; pH above which precipitation of gacyclidine was observed ([4]; hydrochloride salt diluted to 1 mM in buffered aqueous solution): > 7; gacyclidine remaining in solution, % of the added gacyclidine ([4]; pH 9.7, 1 mM added, room temperature, two days, glass, presence or absence of 0.1% SOLUPHOR P): 0.26%; solubility ([4]; thermodynamic from solid, hydrochloride salt, water, read-out: final concentration giving a clear solution in water): ≥ 550000 µM; effect of 0.1% SOLUTOL on losses of gacyclidine from solution [5]: no effect; pH above which losses of gacyclidine were observed [5]: > 6; concentration of gacyclidine ([6]; DMSO stock 1:1000 (0.1% DMSO), Ringer's Lactate pH 7.5, 100 μM initial, 0-3 hours): 97.5 µM; concentration of gacyclidine ([6]; DMSO stock 1:1000, 0.1N HCl (pH 1.0), 100 μM initial, 0-3 hours): 100.3 µM; concentration of gacyclidine ([6]; DMSO stock 1:1000, 0.1N HCl (pH 1.0), 100 μM initial, 3-6 hours): 100.2 µM; concentration of gacyclidine ([6]; DMSO stock 1:1000, 0.1N HCl (pH 1.0), 100 μM initial, 16-19 hours): 100.6 µM; concentration of gacyclidine ([6]; DMSO stock 1:1000, Ringer's Lactate pH 6.6, 100 μM initial, 0-3 hours): 96.0 µM; concentration of gacyclidine ([6]; DMSO stock 1:1000, Ringer's Lactate pH 6.6, 100 μM initial, 3-6 hours): 94.9 µM; concentration of gacyclidine ([6]; DMSO stock 1:1000, Ringer's Lactate pH 6.6, 100 μM initial, 16-19 hours): 91.3 µM; concentration of gacyclidine ([6]; DMSO stock 1:1000, Ringer's Lactate pH 7.5, 100 μM initial, 3-6 hours): 90.4 µM; concentration of gacyclidine ([6]; DMSO stock 1:1000, Ringer's Lactate pH 7.5, 100 μM initial, 16-19 hours): 79.3 µM; concentration of gacyclidine ([6]; aqueous stock 1:1000, 0.1N HCl (pH 1.0), 100 μM initial, 0-3 hours): 99.4 µM; concentration of gacyclidine ([6]; aqueous stock 1:1000, 0.1N HCl (pH 1.0), 100 μM initial, 3-6 hours): 99.8 µM; concentration of gacyclidine ([6]; aqueous stock 1:1000, 0.1N HCl (pH 1.0), 100 μM initial, 16-19 hours): 100.2 µM; concentration of gacyclidine ([6]; aqueous stock 1:1000, Ringer's Lactate pH 6.6, 100 μM initial, 0-3 hours): 95.1 µM; concentration of gacyclidine ([6]; aqueous stock 1:1000, Ringer's Lactate pH 6.6, 100 μM initial, 3-6 hours): 92.6 µM; concentration of gacyclidine ([6]; aqueous stock 1:1000, Ringer's Lactate pH 6.6, 100 μM initial, 16-19 hours): 87.7 µM; concentration of gacyclidine ([6]; aqueous stock 1:1000, Ringer's Lactate pH 7.5, 100 μM initial, 0-3 hours): 88.2 µM; concentration of gacyclidine ([6]; aqueous stock 1:1000, Ringer's Lactate pH 7.5, 100 μM initial, 3-6 hours): 72.0 µM; concentration of gacyclidine ([6]; aqueous stock 1:1000, Ringer's Lactate pH 7.5, 100 μM initial, 16-19 hours): 59.7 µM
